The values that follow come from ChEMBL document CHEMBL1137304, “Fluorinated conformationally restricted gamma-aminobutyric acid aminotransferase inhibitors” (J Med Chem, 2006).

Structures are written as SMILES. pKi: −log10 of the molar value.

In general, pKi refers to the Ki on a negative log10 scale, so that one unit is a factor of ten.

For assay [1], the target named is 4-aminobutyrate aminotransferase, mitochondrial (Sus scrofa, UniProt P80147). In words: Inhibition of pig brain GABA-AT in presence of beta-mercaptoethanol.
The target in assay [2] is 4-aminobutyrate aminotransferase, mitochondrial (Sus scrofa) (UniProt P80147). Put plainly: Inhibition of pig brain GABA-AT in presence of beta-mercaptoethanol at 0.2 M. Conditions: TDE = time-dependent effect.
Assay [3] has the same target. In words: Residual activity at pig brain GABA-AT assessed by exhaustive dialysis at 0.2 M after 22 hrs relative to control.

Sequence of 4-aminobutyrate aminotransferase, mitochondrial (P80147 whole entry): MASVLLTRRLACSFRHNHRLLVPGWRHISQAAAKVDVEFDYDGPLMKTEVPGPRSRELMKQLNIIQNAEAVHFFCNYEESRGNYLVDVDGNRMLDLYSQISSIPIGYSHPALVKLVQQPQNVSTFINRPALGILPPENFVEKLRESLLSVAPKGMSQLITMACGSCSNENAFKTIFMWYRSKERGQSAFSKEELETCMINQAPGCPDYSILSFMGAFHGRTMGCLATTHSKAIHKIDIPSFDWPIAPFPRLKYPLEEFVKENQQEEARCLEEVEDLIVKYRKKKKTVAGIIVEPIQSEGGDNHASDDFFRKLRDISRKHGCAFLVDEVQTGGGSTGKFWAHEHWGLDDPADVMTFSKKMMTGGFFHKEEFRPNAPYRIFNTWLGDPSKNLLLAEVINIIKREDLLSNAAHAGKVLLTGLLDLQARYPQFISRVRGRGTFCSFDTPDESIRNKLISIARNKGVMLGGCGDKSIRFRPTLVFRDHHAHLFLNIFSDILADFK
Sequence of 4-aminobutyrate aminotransferase, mitochondrial (Sus scrofa) (P80147 whole entry): as above

Turning to `N[C@H]1C[C@@H](C(=O)O)C/C1=C/C(F)(F)F`, in assay [1], the negative logarithm of the Ki (pKi) is 2.11. Moreover, in assay [2], the Activity entry is “tde”.
Consider `N[C@H]1C[C@@H](C(=O)O)C=C1F`, for which, in assay [1], the pKi was 2.89.
Regarding `N[C@H]1C[C@@H](C(=O)O)C=C1C(F)(F)C(F)(F)F`, the pKi in assay [1] is 2.55.
The same measure, in the same setting: next, `N[C@H]1C[C@@H](C(=O)O)CC1=C(C(F)(F)F)C(F)(F)F`: 2.38.
Turning to `N[C@H]1C[C@@H](C(=O)O)C=C1C(F)(F)F`, in assay [1], the pKi is 2.39. The Activity result in assay [2] is “tde”; in assay [3], 48%.
In the same order, the values of `N[C@H]1C[C@@H](C(=O)O)CC1=CC(F)(F)F` are 1.41, “tde” and 13%.
